Assay results from patent US4935419A, “Novel 1-piperazinecarboxamide derivatives” (priority 1983, dated 1990).
Counter-ions that a name gives are not always drawn. Like-named read-outs stand apart in the source and are kept apart here.

Assays:
[1] = test system: female rats (conditioned avoidance response); test: Conditioned avoidance response (CAR); assay type: in vivo; conditions: Rattus norvegicus, sc, 1.5 h, read-out: ED50, conditioned avoidance response
Method: Test 2: Conditioned avoidance response (CAR)
The effect of the test compounds on CAR was evaluated in a shuttle box, manufactured by Ugo Basile, Italy. The female rats, weighing 150 g, were trained to avoid an electric shock (unconditioned stimulus--US) by escaping from one compartment to the other when the light from a 15W lamp is switched on (conditioned stimulus--CS). When they responded to the CS, a conditioned response (CR) was considered to have been elicited. Rats showing a stable CR of more than 80% after a three weeks' training program were used in the experiments. Groups of six rats were subcutaneously administered with various doses of the test compounds. 11/2 hours after the administration each rat was placed in the experimental box and the effect on CR was evaluated. ED50 -values refer to the dose inhibiting CR in 50% of the animals. The mechanisms regulating conditioned responses are very complex. Both catecholaminergic and hormonal factors are of importance.

[2] = test system: male NMRI mice (isolation induced aggressive behaviour); test: Isolation induced aggressive behaviour test; assay type: in vivo; conditions: Mus musculus, sc, read-out: ED50, isolation induced aggressive behaviour test
Text: Test 1: Isolation induced aggressive behaviour test
Male mice subjected to prolonged isolation develop aggressive behaviour against each other when paired (Yen, C. Y. et al., Arch. Int. Pharmacodyn. 123, 179, (1959): Valzelli, L., Adv. Pharmacol. 5, 79 (1967)). […] The clinical correlation of this test indicates tranquillizing and anxiolytic activities as well as antiaggressive properties as such (Duncan, R. L. et al., J Med. Chem. 13, 1 (1970)).
This type of aggression is interesting because it is known that this kind of emotional behaviour might be located in limbic structures in the brain (MacLean, P.D., Psychosom. Med. 11, 338 (1949)).
Every week male NMRI mice, weighing 20-22 g, were isolated in Makrolon cages for three weeks with diet and water ad libitum. A piece of cardboard was placed between the cages to prevent visual contact.
To test aggressiveness the mice were paired in a neutral area, a beaker (14 cm high and diameter 14 cm). A pair is considered aggressive if both the animals show clear signs of fighting within 5 minutes. This fighting is characterized by biting and vocalization. […] Animals showing no aggression are discarded. […] The test substance is administered s.c. (0.2-0.4 ml/20 g). The mice are paired 0.5 hour after the injection for trials of 5 minutes duration.
The ED50 -value (mg/kg) reported is the dose inhibiting aggressive behaviour among 50 per cent of the pairs 0.5 hour after drug administration.

[3] = test system: female NMRI mice (writhing behaviour); test: Writhing test (acetic acid); assay type: in vivo; conditions: Mus musculus, sc, 20 minutes before acetic acid (0.5%, 15 ml/kg i.p.), dose blocking writhing in 50% of the animals
Method: The writhing test is a frequently used test of analgetic properties (Witkin, L. B. et al., J. Pharmacol. Exp. Ther. 133, 400 (1961)). If acetic acid (0.5%, 15 ml/kg) is injected intraperitoneally in mice (NMRI) they will without exception develop a writhing behaviour characterized by stretching their hind legs. The drugs to be tested were administered subcutaneously to 6 female mice at each dose 20 minutes before the injection of the acetic acid. After 10 minutes the behaviour of the mice was studied in 5 minutes. The ED50 -value is the dose blocking the writhing behaviour in 50% of the animals during the 5 minutes study period. [drawing 12]

[4] = test system: male NMRI mice (isolation induced aggressive behaviour); conditions: result in words; clinically used drugs; cited from earlier work
[5] = s.c., rats, dose inhibiting CR in 50% of the animals, 1 1/2 hours after administration
[6] = mice, dose inhibiting aggressive behaviour among 50 per cent of the pairs 0.5 hour after administration

| Compound | ED50 [1, 5] [mg/kg] | ED50 [2, 6] [mg/kg] | ED50 [3] [mg/kg] | other results |
| --- | --- | --- | --- | --- |
| CCNC(=O)N1CCN(CCCCc2ccc(F)cc2)CC1 [1:15, 4-.vertline.4-(p-fluorophenyl)butyl.vertline.-N-ethyl-1-piperazinecarboxamide hydrochloride] | 7.9 | 3.5 | 3.7 | – |
| CN1C(=O)CN=C(c2ccccc2)c2cc(Cl)ccc21 [Diazepam] | – | – | – | activity on isolation induced aggressive behaviour, known drugs [4]: active on this kind of aggressive behaviour |
| CN(C)CCCN1c2ccccc2Sc2ccc(Cl)cc21 [Chlorpromazine] | – | – | – | ED50 [1]: 3.5 mg/kg; ED50 ([2]; 0.5 h): 1.4 mg/kg |
| CN(C)CCC=C1c2ccccc2CCc2ccccc21 [Amitriptyline] | – | 5 | – | – |
| CCNC(=O)N1CCN(CCCC(=O)c2ccc(F)cc2)CC1 [1:3, 4-.vertline.4-(p-fluorophenyl)-4-oxobutyl.vertline.-N-ethyl-1-piperazinecarboxamide hydrochloride] | 12 | 1.7 | 1.9 | – |
| CSc1ccc2c(c1)N(CCC1CCCCN1C)c1ccccc1S2 (stereo not drawn) [Thioridazine] | 41 | 5 | – | – |
